Patent US10961238B2, “Modulators of hedgehog (Hh) signaling pathway” (E-THERAPEUTICS PLC, priority 2016, dated 2021)

tested on: C3H10T1/2 cells; test: C3H assay: differentiation of C3H10T1/2 cells by mSHH, measurement of alkaline phosphatase; assay type: cell-based, mouse; details: Mus musculus, C3H 10T1/2; C3H10T1/2 cells stimulated with mSHH for 72 hours; alkaline phosphatase activity; read-out: IC50 Ranges

Row | IC50 [nM] | Compound
1 | 10 to 100 | Cc1noc(C)c1CC(=O)N1CC(S(=O)(=O)N2CCC(c3ccc(F)cc3)CC2)C1 [Compound 342, 2-(3,5-dimethyl-1,2-oxazol-4-yl)-1-[3-[4-(4-fluorophenyl)piperidin-1-yl]sulfonylazetidin-1-yl]ethanone]
2 | 100 to 1000 | CC(C)N(CC(=O)N1CC(S(=O)(=O)N2CCC(c3ccc(F)cc3)CC2)C1)C(C)C [Compound 343, 2-[di(propan-2-yl)amino]-1-[3-[4-(4-fluorophenyl)piperidin-1-yl]sulfonylaze-tidin-l-yl]ethanone]
3 | 100 to 1000 | O=C(NC1(C(F)(F)F)CC1)[C@H]1C[C@H](S(=O)(=O)N2CCC(c3coc4cccnc34)CC2)C1 [Compound 345, trans-3-(4-furo[3,2-b]pyridin-3-ylpiperidin-1-yl)sulfonyl-N-[1-(trifluoromethyl)cyclopropyl] cyclobutane-1-carboxamide]
4 | 1000 to 10000 | CC(C)(C)NC(=O)[C@H]1C[C@H](S(=O)(=O)N2CCC(c3coc4cccnc34)CC2)C1 [Compound 346, trans-N-tert-butyl-3-(4-furo[3,2-b]pyridin-3-ylpiperidin-1-yl) sulfonylcyclobutane-1-carboxamide]
5 | 10 to 100 | Cc1noc(C)c1CC(=O)N1CC(S(=O)(=O)N2CCC(c3ccc(C#N)cc3)CC2)C1 [Compound 349, 4-[1-[1-[2-(3,5-dimethyl-1,2-oxazol-4-yl)acetyl]azetidin-3-yl]sulfonylpiper-idin-4-yl]benzonitrile]
6 | 1000 to 10000 | CN(C(=O)N1CC(S(=O)(=O)N2CCC(c3ccc(C#N)cc3)CC2)C1)C1CC1 [Compound 350, 3-[4-(4-cyanophenyl)piperidin-1-yl]sulfonyl-N-cyclopropyl-N-methylazetidine-1-carboxamide]
7 | 100 to 1000 | N#Cc1ccc(C2CCN(S(=O)(=O)C3CN(C(=O)CC(O)(C(F)(F)F)C(F)(F)F)C3)CC2)cc1 [Compound 351]
8 | 100 to 1000 | CC(C)(C)NC(=O)N1CC(S(=O)(=O)N2CCC(c3ccc(C#N)cc3)CC2)C1 [Compound 352, N-tert-butyl-3-[4-(4-cyanophenyl)piperidin-1-yl] sulfonylazetidine-1-carboxamide]
9 | 1000 to 10000 | O=S(=O)(C1CN(Cc2ccccc2OC(F)F)C1)N1CCC(c2ccccc2)CC1 [Compound 353, 1-[1-[[2-(difluoromethoxy)phenyl]methyl]azetidin-3-yl]sulfonyl-4-phenylpiperidine]
10 | 1000 to 10000 | Cc1ccc(C2CCN(S(=O)(=O)C3CN(C(=O)OC(C)(C)C)C3)CC2)c(C)c1 [Compound 354, tert-butyl 3-[4-(2,4-dimethylphenyl)piperidin-1-yl]sulfonylaze-tidine-1-carboxylate]
11 | 1000 to 10000 | O=C(NC1(C(F)(F)F)CC1)N1CC(S(=O)(=O)N2CCC(c3c[nH]c4cnccc34)CC2)C1 [Compound 355, 3-[4-(1H-pyrrolo[2,3-c]pyridin-3-yl)piperidin-1-yl]sulfonyl-N-[1-(trifluoromethyl)cyclopropyl] azetidine-1-carboxamide]
12 | 1000 to 10000 | O=S(=O)(C1CN(c2ccccn2)C1)N1CCC(c2c[nH]c3cccnc23)CC1 [Compound 356, 3-[1-(1-pyridin-2-ylazetidin-3-yl)sulfonylpiper-idin-4-yl]-1H-pyrrolo[3,2-b]pyridine]
13 | 10 to 100 | CC(C)(C)OC(=O)N[C@H]1C[C@H](S(=O)(=O)N2CCC(c3c[nH]c4ncccc34)CC2)C1 [Compound 357, trans-tert-butyl-N-[3-[[4-(1H-pyrrolo[2,3-b]pyridin-3-yl)-1-piperidyl]sulfonyl]cyclobutyl]carbamate]
14 | 10 to 100 | CC(C)(C)OC(=O)N[C@H]1C[C@@H](S(=O)(=O)N2CCC(c3c[nH]c4ncccc34)CC2)C1 [Compound 358, cis-tert-butyl-N-[3-[[4-(1H-pyrrolo[2,3-b]pyridin-3-yl)-1-piperidyl]sulfonyl]cyclobutyl]carbamate]
15 | 10 to 100 | O=C(Nc1ccc(Cl)cc1Cl)N1CC(S(=O)(=O)N2CCC(c3coc4cccnc34)CC2)C1 [Compound 359, N-(2,4-dichlorophenyl)-3-(4-furo[3,2-b]pyridin-3-ylpiperidin-1-yl)sulfonylaze-tidine-1-carboxamide]
